1 sequence from patent US9180164B2, “Compounds and methods of modulating angiogenesis” (THE CLEVELAND CLINIC FOUNDATION, priority 2011, dated 2015) can be followed below.

In one experiment the test system is HUVECs. Kind of experiment: Cell adhesion assay with inhibiting peptide. Format: cell-based, Human. Conditions: HUVECs on integrin ligand coated plates. How it is done: Cells were washed twice with sterile phosphate buffered saline (PBS) and re-suspended in serum-free DMEN. The cell suspensions were added to integrin ligand-coated wells and placed in a humidified incubator for 45 min. The wells were gently washed three times with DMEM and photographs were taken. The numbers of attached and spread cells per field were counted.
To examine endothelial cell adhesion to various ECM proteins following inhibition of expression of specific integrin subunits, HUVECs were plated on various integrin ligand coated plates and ability of EC to adhere to the distinct extracellular matrix components were tested after administration of a control peptide (YGRKKRRQRRR G DTANNPL FKEATSTFT-COOH) (SEQ ID NO: 43) or with equal amount of beta-3 integrin cytoplasmic domain inhibitory peptide (YGRKKRRQRRR G DTANNPLYpKEATSTFT-COOH) (SEQ ID NO: 44).

A further experiment deals with endothelial cells. The experiment can be described thus: VEGF-induced endothelial cell migration with inhibiting peptide. In kind it is cell-based. The protocol: To examine the effect of the inhibiting peptide on endothelial cell migration, VEGF-induced migratory activity of endothelial cells was measured after administration of a control peptide (YGRKKRRQRRR G DTANNPL FKEATSTFT-COOH) (SEQ ID NO: 43) or with equal amount of beta-3 integrin cytoplasmic domain inhibitory peptide (YGRKKRRQRRR G DTANNPLYpKEATSTFT-COOH) (SEQ ID NO: 44) to the endothelial cells.

The next experiment relates to neovascularization. The experiment can be described thus: Matrigel plug assay, hemoglobin extracted from Matrigel. In kind it is in vivo, mice. Conditions: 50 mM peptide in Matrigel with VEGF (60 ng/mL), subcutaneous, 7 days.

Procedure for neovascularization: Matrigel plug assays were performed in age- and sex-matched C57/B16 background mice. […] After 7 days, the animals were euthanized and dissected. Matrigel plugs were removed and digested using 5 mL Drabkin reagent and neovascularization was assessed using a hemoglobin assay as per the manufacturer's protocol (FIG. 16).
Angiogenic response was measured based on the amount of hemoglobin extracted from Matrigel.

Consider YGRKKRRQRRR G DTANNPL Yp KEATSTFT-COOH, for which, in the experiment with HUVECs, the “effect on cell adhesion compared to a control peptide” value is recorded as “no effect on cell adhesion”. Moreover, in the experiment on endothelial cells, the “VEGF-induced endothelial cell migration compared to the control peptide” value is given as “prevented endothelial cell migration” and the “capillary formation compared to the control peptide” value is listed as “inhibited capillary formation”. The “hemoglobin concentration lower in Matrigel plugs compared to control peptide” value in the experiment with neovascularization is given as “at least 3.5 fold”.
